Data as given in ChEMBL document CHEMBL1201862, “PubChem BioAssay data set” (2004).
Active and inactive are the calls of the source.

Tests used:
[1] = M. tuberculosis H37Rv growth inhibitors, H37Rv strain (AID 1626); type: functional
[2] = target: T1, Leucine aminopeptidase (Plasmodium falciparum 3D7, UniProt Q8IL11); assay: P. falciparum M17LAP inhibitors, primary screen, biochemical, fluorogenic H-Leu-NHMec substrate, 1536-well (AID 1619); type: functional
T1 sequence (Q8IL11 whole entry): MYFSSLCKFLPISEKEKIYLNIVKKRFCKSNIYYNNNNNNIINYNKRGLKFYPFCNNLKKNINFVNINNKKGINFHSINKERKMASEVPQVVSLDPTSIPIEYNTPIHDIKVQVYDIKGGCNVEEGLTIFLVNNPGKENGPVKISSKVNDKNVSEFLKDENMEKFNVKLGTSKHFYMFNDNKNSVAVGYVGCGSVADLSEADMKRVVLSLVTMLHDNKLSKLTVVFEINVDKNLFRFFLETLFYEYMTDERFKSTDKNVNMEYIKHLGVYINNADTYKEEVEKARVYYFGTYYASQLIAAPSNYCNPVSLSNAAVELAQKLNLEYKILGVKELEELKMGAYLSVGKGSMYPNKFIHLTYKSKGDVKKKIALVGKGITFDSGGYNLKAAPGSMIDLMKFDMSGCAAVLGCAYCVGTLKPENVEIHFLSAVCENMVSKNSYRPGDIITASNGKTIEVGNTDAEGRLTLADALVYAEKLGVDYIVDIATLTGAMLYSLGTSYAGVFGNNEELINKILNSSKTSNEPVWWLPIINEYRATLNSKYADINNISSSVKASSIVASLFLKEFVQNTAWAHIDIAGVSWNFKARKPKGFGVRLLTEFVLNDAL

[3] = target: Genome polyprotein (dengue virus type 2, UniProt P29990); assay: flavivirus cap methylation enzyme inhibition – biochemical, confirmation dose response, primary screen (AID 588689); type: functional
[4] = HIV-1 Vif–A3G interaction blockers – biochemical, TR-FRET, GST-Vif 1-94, biotin-A3G peptide, dose response retest, primary screen (AID 1117319); type: functional;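 also: TR-FRET signal of purified GST-Vif binding a biotinylated A3G peptide; inhibitors lower the FRET signal by blocking Vif and A3G binding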
[5] = target: Peroxisome proliferator-activated receptor gamma/Nuclear receptor coactivator 1 (Homo sapiens, UniProt P37231); assay: (§1) TR-FRET dose response biochemical High Throughput Screening assay for agonists of the steroid receptor coactivator 1 (SRC-1) recruitment by the peroxisome proliferator-activated receptor gamma (PPAR gamma): non-selective agonists. [Related pubchem assays (depositor defined):AID1300, AID1808, AID504735, AID631]; type: protein assay
Sequence of Peroxisome proliferator-activated receptor gamma/Nuclear receptor coactivator 1 (P37231 whole entry): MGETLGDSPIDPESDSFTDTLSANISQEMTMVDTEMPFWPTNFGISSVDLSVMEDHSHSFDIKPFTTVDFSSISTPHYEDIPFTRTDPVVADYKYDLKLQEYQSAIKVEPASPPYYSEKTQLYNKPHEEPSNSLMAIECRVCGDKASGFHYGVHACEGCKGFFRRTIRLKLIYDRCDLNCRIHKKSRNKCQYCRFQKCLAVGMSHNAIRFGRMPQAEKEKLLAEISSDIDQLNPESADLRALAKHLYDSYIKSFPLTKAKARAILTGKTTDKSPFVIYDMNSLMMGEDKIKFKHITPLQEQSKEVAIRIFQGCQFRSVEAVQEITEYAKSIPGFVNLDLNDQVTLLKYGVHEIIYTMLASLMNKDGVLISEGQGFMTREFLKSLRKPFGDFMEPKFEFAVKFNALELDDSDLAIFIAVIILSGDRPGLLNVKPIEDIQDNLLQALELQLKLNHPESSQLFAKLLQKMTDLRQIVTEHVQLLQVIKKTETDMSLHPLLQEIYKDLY
Sequence of Peroxisome proliferator-activated receptor gamma/Nuclear receptor coactivator 1 (Q15788 whole entry, further chain): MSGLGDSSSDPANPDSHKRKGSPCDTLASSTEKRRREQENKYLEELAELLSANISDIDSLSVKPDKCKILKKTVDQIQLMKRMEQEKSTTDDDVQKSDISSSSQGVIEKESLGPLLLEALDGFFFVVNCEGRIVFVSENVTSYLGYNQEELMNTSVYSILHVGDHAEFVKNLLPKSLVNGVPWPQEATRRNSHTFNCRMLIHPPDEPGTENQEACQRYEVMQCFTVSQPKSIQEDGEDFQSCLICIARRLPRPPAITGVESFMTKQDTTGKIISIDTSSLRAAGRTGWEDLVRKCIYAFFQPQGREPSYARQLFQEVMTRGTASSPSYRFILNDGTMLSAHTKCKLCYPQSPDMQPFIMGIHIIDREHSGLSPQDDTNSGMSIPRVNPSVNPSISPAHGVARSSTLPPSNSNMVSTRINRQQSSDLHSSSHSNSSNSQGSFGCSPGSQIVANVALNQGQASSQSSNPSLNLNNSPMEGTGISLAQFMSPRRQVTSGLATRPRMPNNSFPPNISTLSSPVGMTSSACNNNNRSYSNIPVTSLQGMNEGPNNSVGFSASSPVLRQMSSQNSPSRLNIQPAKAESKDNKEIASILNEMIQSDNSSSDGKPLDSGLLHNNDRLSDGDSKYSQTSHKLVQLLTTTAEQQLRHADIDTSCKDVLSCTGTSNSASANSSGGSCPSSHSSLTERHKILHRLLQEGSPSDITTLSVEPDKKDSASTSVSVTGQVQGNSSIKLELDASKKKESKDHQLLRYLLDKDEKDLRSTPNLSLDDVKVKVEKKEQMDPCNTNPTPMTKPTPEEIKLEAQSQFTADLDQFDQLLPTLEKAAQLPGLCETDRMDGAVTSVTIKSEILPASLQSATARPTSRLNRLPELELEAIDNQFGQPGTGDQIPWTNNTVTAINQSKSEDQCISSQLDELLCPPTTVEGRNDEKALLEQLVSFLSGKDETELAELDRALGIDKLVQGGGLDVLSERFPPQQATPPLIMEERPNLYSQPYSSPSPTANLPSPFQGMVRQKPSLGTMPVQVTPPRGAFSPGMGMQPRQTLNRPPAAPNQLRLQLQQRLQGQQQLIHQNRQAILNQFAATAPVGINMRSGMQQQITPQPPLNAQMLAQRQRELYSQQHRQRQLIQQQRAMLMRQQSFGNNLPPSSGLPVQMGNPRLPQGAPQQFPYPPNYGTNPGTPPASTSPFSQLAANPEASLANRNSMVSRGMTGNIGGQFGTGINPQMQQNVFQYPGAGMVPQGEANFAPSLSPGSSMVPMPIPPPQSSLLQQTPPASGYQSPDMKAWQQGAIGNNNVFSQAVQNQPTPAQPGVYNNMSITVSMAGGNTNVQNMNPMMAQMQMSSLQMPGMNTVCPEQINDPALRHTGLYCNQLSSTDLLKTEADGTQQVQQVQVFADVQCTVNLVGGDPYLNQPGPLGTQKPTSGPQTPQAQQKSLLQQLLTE

[6] = target: Peroxisome proliferator-activated receptor gamma/Nuclear receptor coactivator 3 (Homo sapiens, UniProt P37231); assay: as §1, with “3 (SRC-3)” for “1 (SRC-1)”, “assays: 1301 (Confirmation screen.), 1048 (Primary screen.)]” for “assays (depositor defined):AID1300, AID1808, AID504735, AID631]”; type: functional
Sequence of Peroxisome proliferator-activated receptor gamma/Nuclear receptor coactivator 3 (P37231 whole entry): as the sequence (P37231 whole entry) above
Sequence of Peroxisome proliferator-activated receptor gamma/Nuclear receptor coactivator 3 (Q9Y6Q9 whole entry, further chain): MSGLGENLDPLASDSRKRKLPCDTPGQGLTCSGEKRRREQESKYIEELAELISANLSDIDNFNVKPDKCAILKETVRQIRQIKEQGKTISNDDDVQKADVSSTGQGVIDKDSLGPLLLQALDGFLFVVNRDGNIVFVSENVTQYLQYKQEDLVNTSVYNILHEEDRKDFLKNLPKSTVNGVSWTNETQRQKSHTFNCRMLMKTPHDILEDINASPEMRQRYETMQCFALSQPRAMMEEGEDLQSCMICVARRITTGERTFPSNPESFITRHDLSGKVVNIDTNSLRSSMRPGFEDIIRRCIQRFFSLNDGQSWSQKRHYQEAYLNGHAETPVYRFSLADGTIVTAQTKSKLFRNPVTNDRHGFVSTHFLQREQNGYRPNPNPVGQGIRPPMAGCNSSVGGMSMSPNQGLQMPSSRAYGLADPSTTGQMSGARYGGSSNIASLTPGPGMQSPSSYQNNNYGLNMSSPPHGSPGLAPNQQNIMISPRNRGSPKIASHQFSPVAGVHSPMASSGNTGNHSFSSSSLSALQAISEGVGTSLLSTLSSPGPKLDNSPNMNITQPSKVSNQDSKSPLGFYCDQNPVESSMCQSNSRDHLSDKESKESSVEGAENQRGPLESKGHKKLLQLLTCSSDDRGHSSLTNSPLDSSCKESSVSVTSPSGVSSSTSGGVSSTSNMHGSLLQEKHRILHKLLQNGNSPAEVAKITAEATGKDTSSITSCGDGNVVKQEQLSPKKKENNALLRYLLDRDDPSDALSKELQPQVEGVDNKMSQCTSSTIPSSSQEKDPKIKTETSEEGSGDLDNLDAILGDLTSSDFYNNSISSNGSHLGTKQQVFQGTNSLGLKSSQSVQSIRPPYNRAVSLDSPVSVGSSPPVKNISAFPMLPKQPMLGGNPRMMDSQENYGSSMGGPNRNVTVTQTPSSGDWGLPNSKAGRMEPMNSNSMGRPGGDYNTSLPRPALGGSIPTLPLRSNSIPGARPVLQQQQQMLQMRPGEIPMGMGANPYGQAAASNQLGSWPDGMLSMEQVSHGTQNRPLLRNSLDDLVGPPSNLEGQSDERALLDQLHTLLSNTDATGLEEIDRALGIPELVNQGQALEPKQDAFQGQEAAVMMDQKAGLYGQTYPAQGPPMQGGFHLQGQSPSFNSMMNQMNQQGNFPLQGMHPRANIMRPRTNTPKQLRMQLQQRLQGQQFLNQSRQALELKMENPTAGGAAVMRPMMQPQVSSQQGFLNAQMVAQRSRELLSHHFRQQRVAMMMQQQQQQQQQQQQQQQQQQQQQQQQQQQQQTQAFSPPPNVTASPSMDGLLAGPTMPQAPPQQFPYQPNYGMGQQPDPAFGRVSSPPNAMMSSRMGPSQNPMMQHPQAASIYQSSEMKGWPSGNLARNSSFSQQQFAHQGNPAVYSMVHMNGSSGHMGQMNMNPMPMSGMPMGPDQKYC

[7] = target: Peroxisome proliferator-activated receptor gamma/Nuclear receptor coactivator 2 (Homo sapiens, UniProt P37231); assay: TR-FRET dose response biochemical High Throughput Screening assay for agonists of the steroid receptor coactivator 2 (SRC-2) recruitment by the peroxisome proliferator-activated receptor gamma (PPAR gamma): non-selective agonists. [Related pubchem assays: 1297, 1032 ]; type: functional
[8] = target: T2, Caspase-6 (Homo sapiens, UniProt P55212); assay: inhibition of CASP6 peptide cleavage – biochemical, VEID-R110 fluorescence, cherry-pick, dose response (AID 720632)
T2 sequence (P55212 whole entry): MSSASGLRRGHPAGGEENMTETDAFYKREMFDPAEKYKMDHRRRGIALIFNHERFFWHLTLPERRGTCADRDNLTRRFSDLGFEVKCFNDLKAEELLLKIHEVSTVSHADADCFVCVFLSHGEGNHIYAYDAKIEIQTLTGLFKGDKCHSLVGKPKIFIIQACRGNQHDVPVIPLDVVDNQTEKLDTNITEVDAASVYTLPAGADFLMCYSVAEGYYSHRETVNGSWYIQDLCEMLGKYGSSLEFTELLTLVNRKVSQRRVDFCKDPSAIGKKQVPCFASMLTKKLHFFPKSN

[9] = target: T3, RNA-binding protein pos-1 (Caenorhabditis elegans, UniProt G5EF15); assay: disruptors of C. elegans POS-1 RNA interaction – biochemical, fluorescence polarization, dose response (AID 1964);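 also: purified POS-1 fused to maltose binding protein made in E. coli; potency of compounds blocking POS-1 binding to fluorescent RNA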
T3 sequence (G5EF15 whole entry): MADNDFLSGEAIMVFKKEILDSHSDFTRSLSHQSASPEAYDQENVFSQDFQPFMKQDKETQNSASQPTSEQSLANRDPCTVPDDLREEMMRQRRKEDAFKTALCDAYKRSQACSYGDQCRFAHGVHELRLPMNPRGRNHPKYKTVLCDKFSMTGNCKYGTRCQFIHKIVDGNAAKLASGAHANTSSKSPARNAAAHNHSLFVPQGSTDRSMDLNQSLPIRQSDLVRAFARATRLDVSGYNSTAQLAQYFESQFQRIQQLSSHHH

[10] = target: T4, Zinc finger protein mex-5 (Caenorhabditis elegans, UniProt Q9XUB2); assay: potency of MEX-5 RNA-binding blockers – biochemical, C. elegans, fluorescence polarization, dose response (AID 1960)
T4 sequence (Q9XUB2 whole entry): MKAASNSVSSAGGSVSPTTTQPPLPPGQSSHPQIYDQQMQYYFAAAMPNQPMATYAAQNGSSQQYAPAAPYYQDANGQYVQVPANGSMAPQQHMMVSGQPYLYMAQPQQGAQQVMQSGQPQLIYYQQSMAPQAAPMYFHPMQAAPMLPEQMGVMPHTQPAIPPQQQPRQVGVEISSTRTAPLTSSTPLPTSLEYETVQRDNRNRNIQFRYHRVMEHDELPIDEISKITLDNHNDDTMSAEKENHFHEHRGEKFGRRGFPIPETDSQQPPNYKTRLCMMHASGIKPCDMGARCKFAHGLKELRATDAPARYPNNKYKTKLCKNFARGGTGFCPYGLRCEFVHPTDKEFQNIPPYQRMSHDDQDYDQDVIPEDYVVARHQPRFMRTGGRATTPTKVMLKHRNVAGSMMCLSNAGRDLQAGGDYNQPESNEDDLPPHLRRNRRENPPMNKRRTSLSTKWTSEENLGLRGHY

[11] = target: Induced myeloid leukemia cell differentiation protein Mcl-1 (Homo sapiens, UniProt Q07820); type: functional
Sequence of Induced myeloid leukemia cell differentiation protein Mcl-1 (Q07820 whole entry): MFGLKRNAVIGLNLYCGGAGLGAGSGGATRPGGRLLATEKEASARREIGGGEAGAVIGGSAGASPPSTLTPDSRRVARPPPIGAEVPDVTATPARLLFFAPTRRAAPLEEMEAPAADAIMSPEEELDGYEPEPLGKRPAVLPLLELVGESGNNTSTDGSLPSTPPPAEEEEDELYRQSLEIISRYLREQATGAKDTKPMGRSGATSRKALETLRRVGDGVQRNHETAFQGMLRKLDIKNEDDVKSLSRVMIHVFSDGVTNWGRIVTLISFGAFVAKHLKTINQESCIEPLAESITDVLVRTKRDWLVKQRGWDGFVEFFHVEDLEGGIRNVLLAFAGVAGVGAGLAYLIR

[12] = viability of uninfected HEp-2 cells – cell-based, HTS, cytotoxicity control for RSV inhibitor project, dose response (AID 2410); type: functional; details: human respiratory syncytial virus
[13] = target: T5, Histone-lysine N-methyltransferase NSD2 (Homo sapiens, UniProt O96028); type: biochemical
T5 sequence (O96028 whole entry): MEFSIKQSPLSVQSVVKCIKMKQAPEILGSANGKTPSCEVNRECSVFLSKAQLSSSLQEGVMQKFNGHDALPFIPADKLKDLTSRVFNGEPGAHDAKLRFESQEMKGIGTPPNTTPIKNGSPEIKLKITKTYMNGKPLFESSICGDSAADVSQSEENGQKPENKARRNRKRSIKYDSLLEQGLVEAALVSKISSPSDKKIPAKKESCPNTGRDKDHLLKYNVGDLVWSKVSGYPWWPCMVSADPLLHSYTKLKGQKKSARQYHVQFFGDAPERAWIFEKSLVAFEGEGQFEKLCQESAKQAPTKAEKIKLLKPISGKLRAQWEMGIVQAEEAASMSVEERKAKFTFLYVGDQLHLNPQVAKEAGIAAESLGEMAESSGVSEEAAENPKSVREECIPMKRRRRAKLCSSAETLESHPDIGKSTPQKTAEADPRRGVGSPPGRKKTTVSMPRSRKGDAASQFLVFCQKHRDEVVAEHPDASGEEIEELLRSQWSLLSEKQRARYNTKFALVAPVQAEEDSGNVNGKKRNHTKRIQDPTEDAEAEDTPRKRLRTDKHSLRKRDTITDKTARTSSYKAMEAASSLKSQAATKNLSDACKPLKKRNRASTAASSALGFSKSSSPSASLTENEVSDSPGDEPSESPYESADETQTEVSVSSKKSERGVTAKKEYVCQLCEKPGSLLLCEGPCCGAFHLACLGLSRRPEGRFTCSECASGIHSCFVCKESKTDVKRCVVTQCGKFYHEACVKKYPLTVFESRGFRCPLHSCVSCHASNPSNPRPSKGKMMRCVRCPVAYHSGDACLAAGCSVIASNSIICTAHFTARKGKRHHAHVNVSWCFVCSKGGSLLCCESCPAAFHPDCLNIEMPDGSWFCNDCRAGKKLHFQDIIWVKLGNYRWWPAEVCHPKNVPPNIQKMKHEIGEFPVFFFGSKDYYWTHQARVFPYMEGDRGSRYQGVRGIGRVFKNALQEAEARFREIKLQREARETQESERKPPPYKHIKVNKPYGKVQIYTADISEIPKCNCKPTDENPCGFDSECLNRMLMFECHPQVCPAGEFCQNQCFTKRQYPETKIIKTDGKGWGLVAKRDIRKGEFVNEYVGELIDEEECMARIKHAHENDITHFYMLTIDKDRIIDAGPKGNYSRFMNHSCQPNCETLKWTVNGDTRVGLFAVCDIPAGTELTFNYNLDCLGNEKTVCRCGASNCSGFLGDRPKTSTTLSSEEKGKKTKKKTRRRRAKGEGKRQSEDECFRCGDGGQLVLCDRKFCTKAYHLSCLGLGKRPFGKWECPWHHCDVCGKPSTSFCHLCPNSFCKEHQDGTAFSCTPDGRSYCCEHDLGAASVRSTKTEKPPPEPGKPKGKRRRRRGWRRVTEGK

[14] = target: Paired box protein Pax-8 (Homo sapiens, UniProt Q06710); assay: PAX8 transcriptional activity inhibition in RMG-I – RMG-I cells, luciferase, cherry-pick, dose response (AID 687027); type: functional, cell-based;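 also: luciferase reporter driven by Pax8 target thyroperoxidase promoter measured by SteadyGlo luminescence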
Sequence of Paired box protein Pax-8 (Q06710 whole entry): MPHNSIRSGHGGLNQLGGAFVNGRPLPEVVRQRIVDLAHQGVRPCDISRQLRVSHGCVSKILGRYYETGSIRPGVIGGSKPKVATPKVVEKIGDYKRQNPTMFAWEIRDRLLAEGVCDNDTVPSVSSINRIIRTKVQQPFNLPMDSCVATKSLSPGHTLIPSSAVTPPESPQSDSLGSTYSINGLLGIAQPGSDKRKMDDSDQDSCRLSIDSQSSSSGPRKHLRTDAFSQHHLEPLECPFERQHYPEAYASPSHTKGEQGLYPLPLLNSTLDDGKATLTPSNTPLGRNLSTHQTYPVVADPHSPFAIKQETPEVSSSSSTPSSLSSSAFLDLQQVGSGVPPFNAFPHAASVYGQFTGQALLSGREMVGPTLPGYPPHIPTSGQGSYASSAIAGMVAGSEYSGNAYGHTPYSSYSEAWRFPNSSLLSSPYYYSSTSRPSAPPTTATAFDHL

[15] = tested on: INS1; assay: INS-1E survival protection against cytokine death – cell-based, luminescence, retest, dose response (AID 449756); type: functional; details: Rattus norvegicus;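 also: cell death triggered by IL-1 beta plus TNF-alpha plus IFN-gamma mixture; protective hits raise ATP signal compared with cytokine alone wells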
[16] = target: T6, Calpain-2 catalytic subunit (Sus scrofa, UniProt P43367); assay: m-calpain protease blockers, concentration series – biochemical, fluorogenic peptide substrate, dose response (AID 1420); type: functional
T6 sequence (P43367 whole entry): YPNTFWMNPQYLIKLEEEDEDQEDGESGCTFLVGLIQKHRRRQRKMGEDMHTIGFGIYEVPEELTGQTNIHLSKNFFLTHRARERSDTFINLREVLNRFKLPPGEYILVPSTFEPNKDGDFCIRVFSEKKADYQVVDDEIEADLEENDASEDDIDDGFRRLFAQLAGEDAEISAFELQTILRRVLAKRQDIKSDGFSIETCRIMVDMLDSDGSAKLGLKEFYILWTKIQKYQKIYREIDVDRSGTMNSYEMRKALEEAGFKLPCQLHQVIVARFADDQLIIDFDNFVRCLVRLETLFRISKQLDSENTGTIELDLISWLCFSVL

[17] = target: T7, Galanin receptor type 3 (Homo sapiens, UniProt O60755); assay: Fluorescence-based cell-based primary high throughput dose response assay to identify antagonists of the Galanin Receptor 3 (GalR3).; type: functional
T7 sequence (O60755 whole entry): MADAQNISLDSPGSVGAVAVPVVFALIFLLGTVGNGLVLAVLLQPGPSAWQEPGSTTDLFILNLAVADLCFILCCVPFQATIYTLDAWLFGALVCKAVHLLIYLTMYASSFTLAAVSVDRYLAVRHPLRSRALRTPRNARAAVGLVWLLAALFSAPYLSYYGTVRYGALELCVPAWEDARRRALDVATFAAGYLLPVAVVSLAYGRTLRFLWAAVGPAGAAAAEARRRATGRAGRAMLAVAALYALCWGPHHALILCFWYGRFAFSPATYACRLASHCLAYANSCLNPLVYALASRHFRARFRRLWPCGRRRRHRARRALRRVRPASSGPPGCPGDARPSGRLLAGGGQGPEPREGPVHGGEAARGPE

[18] = cells; type: functional, cell-based; details: HEK-CNG
[19] = tested on: Vero; assay: cells; type: functional; details: Chlorocebus sabaeus

Compound: COc1cccc(CNc2ccccc2O)c1OCc1ccccc1F
- IC50 [1]: > 100 µM (active)

Compound: CCOc1ccc(NC=C2C(=O)CC(C)(C)CC2=O)cc1
- IC50 [1]: > 100 µM (active)

Compound: CCOc1ccc(NC(=O)CCn2cccc2)cc1
- IC50 [1]: > 100 µM (active)

Compound: O=C1/C(=C/c2ccc(C(=O)O)cc2)CCC/C1=C\c1ccc(C(=O)O)cc1
- IC50 [2]: 62.7 µM (active)
- IC50 [3]: > 100 µM (active)

Compound: COc1ccc(NC(=O)CN2C(=O)CSC(C)C2=O)cc1 (stereo unspecified)
- IC50 [2]: 3.83 µM (active)

Compound: Cc1ccc(NC(=O)CCn2cnc3ccccc3c2=O)cc1Cl
- IC50 [1]: > 100 µM (active)

Compound: COc1c(F)c(F)c(C(=O)Nc2ccc3oc(-c4ccncc4)nc3c2)c(F)c1F
- IC50 [4]: > 100 µM (active)
- EC50 [5]: 21.5 µM (inactive)
- EC50 [6]: 57.7 µM (not active)
- EC50 [7]: 20.6 µM (not active)

Compound: N#CC1=C(N)Oc2c(c(=O)oc3ccccc23)C1c1ccc([N+](=O)[O-])o1 (stereo unspecified)
- AC50 [8]: 13.9 µM (active)

Compound: N#CC1=C(N)Oc2cc(O)c(Cl)cc2C1c1ccccc1F (stereo unspecified)
- EC50 [9]: > 300 µM (not active)
- AC50 [8]: 42.2 µM (active)
- EC50 [10]: > 300 µM (not active)

Compound: O=c1nc2s/c(=C\c3ccc(-c4ccccc4[N+](=O)[O-])o3)c(=O)n2nc1-c1ccccc1
- AC50 [8]: 18 µM (active)
- IC50 [11]: 9.66 µM (active)

Compound: Cc1ccc(-c2[nH]nc3c2C(c2ccoc2)C(C#N)=C(N)O3)cc1C (stereo unspecified)
- IC50 [2]: 3.65 µM (active)

Compound: Cc1c(NC(=S)NC(=O)c2ccc(-c3ccc(Cl)cc3)o2)cccc1C(=O)O
- CC50 [12]: 35.4 µM (active)
- IC50 [2]: 29.7 µM (active)

Compound: CCCn1c(=N)n(CC(O)c2ccco2)c2ccccc21 (stereo unspecified)
- IC50 [4]: > 100 µM (active)

Compound: CN(C)c1ccc(CNCCC(Cc2ccccc2)c2ccco2)cc1 (stereo unspecified)
- AC50 [13]: > 20 µM (inactive)

Compound: COc1ccc(N2CCN(CCNC(=O)Nc3ccc(Cl)cc3)CC2)cc1
- IC50 [4]: > 100 µM (active)

Compound: COc1ccc(-c2csc(NC(=O)c3ccccc3NS(=O)(=O)c3ccc(F)c(F)c3)n2)cc1
- AC50 [14]: 2.64 µM (active)
- AC50 [15]: 3.05 µM (active)
- IC50 [16]: > 50 µM (not active)
- IC50 [17]: 1.4 µM (active)
- EC50 [18]: > 29.9 µM (inactive)
- CC50 [19]: 2.03 µM (active)

Compound: CSc1nc2ccc(NS(=O)(=O)c3cccc(Cl)c3Cl)cc2s1
- IC50 [1]: > 100 µM (active)

Compound: Cc1ccc(C(=O)N2c3ccc(F)cc3CCC2C)o1 (stereo unspecified)
- IC50 [4]: > 100 µM (active)
